According to US8399490B2, “Insecticides” (Syngenta Crop Protection LLC, priority 2007, dated 2013):

Experiments:
Assay type in all cases: in vivo
[1] = tested on: Spodoptera littoralis (Egyptian cotton leafworm); assay: Example B1: Activity against Spodoptera littoralis (larvicide, feeding/residual contact activity, preventive), cotton leaf discs; conditions: foliar, 72 h, L1 larvae on cotton leaf discs, 3 days after treatment
From the text: Activity Against Spodoptera littoralis (Egyptian Cotton Leafworm)
(Larvicide, Feeding/Residual Contact Activity, Preventive)
The samples are checked for mortality, repellent effect, feeding behaviour, and growth regulation 3 days after treatment. In this test, compounds listed in Table P above show good activity. In particular compounds P.1, P.2, P.3, P.4, P.5, P.6, P.7, P.8, P.9, P.10, P.11, P.12, P.13, P.14, P.15, P.16, P.17, P.18, P.19, P.20, P.21, P.22, P.23, P.24, P.25, P.26, P.27, P.28, P.29, P.30, P.31, P.32, P.33, P.34, P.35, P.36, P.37, P.38, P.39, P.40, P.41, P.42, P.43, P.44, P.46, P.50, P.51, P.52, P.55, P.56, P.57, P.58, P.59, P.60, P61, P.66, P.67, P.68, P.69, P.70, P.71, P.72, P.73, P.74, P.75, P.76, P.77, P.78, P.83, P.84, P.87 and P.88 show an activity of over 80% at a concentration of 400 ppm.

[2] = tested on: Heliothis virescens (tobacco budworm); assay: Example B2: Activity against Heliothis virescens (ovo-larvicide, feeding/contact activity, curative), eggs on artificial diet; conditions: 96 h, 4 days incubation
Description: Activity Against Heliothis virescens (Tobacco Budworm) (Ovo-Larvicide, Feeding/Contact Activity, Curative) Eggs (0-24 h old) are placed in 24-well microtiter plate on artificial diet and treated with test solutions by pipetting. After an incubation period of 4 days, samples are checked for egg mortality, larval mortality, and growth regulation.

[3] = tested on: Diabrotica balteata (corn root worm); assay: Example B4: Diabrotica balteata (larvicide, feeding/residual contact activity, preventive), artificial diet MTP; conditions: 120 h, L2 larvae on artificial diet, 5 days incubation
Description: Diabrotica balteata (Corn Root Worm) (Larvicide, Feeding/Residual Contact Activity, Preventive) 24-well microtiter plate (MTP) with artificial diet is treated with test solutions by pipetting. After drying, the MTP's are infested with larvae (L2) (6-10 per well). After an incubation period of 5 days, samples are checked for larval mortality, antifeedant and growth regulation.

[4] = tested on: Plutella xylostella (diamond back moth); assay: Example B3: Plutella xylostella (larvicide, feeding/residual contact activity, preventive), artificial diet MTP; conditions: 120 h, L2 larvae on artificial diet, 5 days incubation
Description: Plutella xylostella (Diamond Back Moth) (Larvicide, Feeding/Residual Contact Activity, Preventive) 24-well microtiter plate (MTP) with artificial diet is treated with test solutions by pipetting. After drying, the MTP's are infested with larvae (L2) (10-15 per well). After an incubation period of 5 days, samples are checked for larval mortality, antifeedant and growth regulation.

Measured: pest or weed control at 400 ppm

CC(C)NC(=O)c1c(NC(=O)c2cc(C(F)(F)F)nn2-c2ncccc2Cl)c(Cl)cc2c1OCO2 [P.1]
> 80%: all assays above

CCNC(=O)c1c(NC(=O)c2cc(C(F)(F)F)nn2-c2ncccc2Cl)c(Cl)cc2c1OCO2 [P.2]
> 80%: all assays above

CC(C)NC(=O)c1c(NC(=O)c2cc(Cl)nn2-c2ncccc2Cl)c(Cl)cc2c1OCO2 [P.3]
> 80%: all assays above

CC(C)NC(=O)c1c(NC(=O)c2cc(C(F)F)nn2-c2ncccc2Cl)c(Cl)cc2c1OCO2 [P.4]
> 80%: all assays above

O=C(NC1(C2CC2)CC1)c1c(NC(=O)c2cc(Cl)nn2-c2ncccc2Cl)c(Cl)cc2c1OCO2 [P.6]
> 80%: all assays above

CCNC(=O)c1c(NC(=O)c2cc(Cl)nn2-c2ncccc2Cl)c(Cl)cc2c1OCO2 [P.8]
> 80%: all assays above

CC(C)NC(=O)c1c(NC(=O)c2cc(Br)nn2-c2ncccc2Cl)c(Cl)cc2c1OCO2 [P.10]
> 80%: all assays above

O=C(NC1(C2CC2)CC1)c1c(NC(=O)c2cc(Br)nn2-c2ncccc2Cl)c(Cl)cc2c1OCO2 [P.11]
> 80%: all assays above

O=C(NC1(C2CC2)CC1)c1c(NC(=O)c2cc(C(F)(F)F)nn2-c2ncccc2Cl)c(Cl)cc2c1OC(F)(F)O2 [P.17]
> 80%: all assays above

O=C(NC1(C2CC2)CC1)c1c(NC(=O)c2cc(Cl)nn2-c2ncccc2Cl)c(Cl)cc2c1OC(F)(F)O2 [P.25]
> 80%: all assays above

Cc1cc2c(c(C(=O)NC3(C4CC4)CC3)c1NC(=O)c1cc(Br)nn1-c1ncccc1Cl)OC(F)(F)O2 [P.28]
> 80%: all assays above

Cc1cc2c(c(C(=O)NC3(C4CC4)CC3)c1NC(=O)c1cc(Cl)nn1-c1ncccc1Cl)OC(F)(F)O2 [P.32]
> 80%: all assays above

COc1cc(C(=O)Nc2c(C)cc3c(c2C(=O)NC(C)C)OC(F)(F)O3)n(-c2ncccc2Cl)n1 [P.36]
> 80%: all assays above

CNC(=O)c1c(NC(=O)c2cc(OC)nn2-c2ncccc2Cl)c(Cl)cc2c1OC(F)(F)O2 [P.37]
> 80%: all assays above

CNC(=O)c1c(NC(=O)c2cc(OC)nn2-c2ncccc2Cl)c(Br)cc2c1OC(F)(F)O2 [P.39]
> 80%: all assays above

COc1cc(C(=O)Nc2c(Br)cc3c(c2C(=O)NC(C)C)OC(F)(F)O3)n(-c2ncccc2Cl)n1 [P.40]
> 80%: all assays above

CNC(=O)c1c(NC(=O)c2cc(Br)nn2-c2ncccc2Cl)c(Br)cc2c1OC(F)(F)O2 [P.41]
> 80%: all assays above

CC(C)NC(=O)c1c(NC(=O)c2cc(Br)nn2-c2ncccc2Cl)c(Br)cc2c1OC(F)(F)O2 [P.42]
> 80%: all assays above

CNC(=O)c1c(NC(=O)c2cc(C(F)(F)F)nn2-c2ncccc2Cl)c(C)cc2c1OC(F)(F)O2 [P.43]
> 80%: all assays above

Cc1cc2c(c(C(=O)NC(C)C)c1NC(=O)c1cc(C(F)(F)F)nn1-c1ncccc1Cl)OC(F)(F)O2 [P.44]
> 80%: all assays above

Cc1cc2c(c(C(=O)NCC3CC3)c1NC(=O)c1cc(C(F)(F)F)nn1-c1ncccc1Cl)OC(F)(F)O2 [P.46]
> 80%: all assays above

CC(C)NC(=O)c1c(NC(=O)c2cc(C(F)(F)F)nn2-c2ncccc2Cl)c(Cl)cc2c1C(F)CC2 (stereo not shown) [P.49]
> 80%: [2] | [3] | [4]

CC(C)NC(=O)c1c(NC(=O)c2cc(Br)nn2-c2ncccc2Cl)c(Cl)cc2c1C(O)CC2 (stereo not shown) [P.54]
> 80%: [2] | [3] | [4]

CC(C)NC(=O)c1c(NC(=O)c2cc(OCC(F)(F)F)nn2-c2ncccc2Cl)c(Cl)cc2c1OCO2 [P.57]
> 80%: all assays above

CC(C)NC(=O)c1c(NC(=O)c2cc(Br)nn2-c2ncccc2Cl)ccc2c1S(=O)(=O)C(C)C2 (stereo not shown) [P.60]
> 80%: all assays above

Cc1cc2c(c(C(=O)NC(C)C)c1NC(=O)c1cc(C(F)(F)F)nn1-c1ncccc1Cl)OCO2 [P.67, 5-methyl-6-{[2-(3-chloro-pyridin-2-yl)-5-trifluoromethyl-2H-pyrazole-3-carbonyl]-amino}-2,4-dioxolane-benzoic acid isopropylamide]
> 80%: all assays above

CCNC(=O)c1c(NC(=O)c2cc(C(F)(F)F)nn2-c2ncccc2Cl)c(C)cc2c1OCO2 [P.68]
> 80%: all assays above
